PubChem BioAssay AID250 (DTP/NCI, 2004)
Several values for one entry are separate records, joined by “and”; a condition that tells them apart may be missing. Equal entries are not always repeated. Toxic doses and inconclusive results are not listed. Square brackets hold non-standard residues; d marks the D form. Peptide text beside a SMILES is read from it. Ac5c = NC1(C(=O)O)CCCC1

Tested on: BDF1 mice, L1210 leukemia sc, survival T/C
Experiment: NCI In Vivo Anticancer Drug Screen. Data for tumor model L1210 Leukemia (subcutaneous) in B6D2F1 (BDF1) mice
Details: endpoint: median survival time, higher = longer survival
How it was run: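 Transplantable tumor-bearing mice; survival or tumor size recorded; result = T/C, treated vs vehicle control.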

`CCN(O)C(N)=O` was tested, and the T/C (dose: 1.0 mg/kg/injection, schedule: Q01DX Z (sc), vehicle: methylcellulose (MC)) was 95 % of control, the T/C (dose: 2.0 mg/kg/injection, schedule: Q01DX Z (sc), vehicle: methylcellulose (MC)) was 104 % of control and the T/C (dose: 4.0 mg/kg/injection, schedule: Q01DX Z (sc), vehicle: methylcellulose (MC)) was 91 % of control. The T/C (dose: 8.0 mg/kg/injection, schedule: Q01DX Z (sc), vehicle: methylcellulose (MC)) was 100 % of control, the T/C (dose: 16.0 mg/kg/injection, schedule: Q01DX Z (sc), vehicle: methylcellulose (MC)) was 100 % of control and the T/C (dose: 31.0 mg/kg/injection, schedule: Q01DX Z (sc), vehicle: methylcellulose (MC)) was 100 % of control. For the same molecule, the T/C (dose: 62.0 mg/kg/injection, schedule: Q01DX Z (sc), vehicle: methylcellulose (MC)) was 100 % of control, the T/C (dose: 125.0 mg/kg/injection, schedule: Q01DX Z (sc), vehicle: methylcellulose (MC)) was 100 % of control and the T/C (dose: 250.0 mg/kg/injection, schedule: Q01DX Z (sc), vehicle: methylcellulose (MC)) was 112 % of control.
In the case of `O=C(O)c1ccc([N+](=O)[O-])cc1`, the T/C (dose: 23.0 mg/kg/injection, schedule: Q01DX Z (sc), vehicle: methylcellulose (MC)) is reported as 104 % of control.
`NCC(=O)NC1(C(=O)O)CCCC1` (H-Gly-[Ac5c]-OH) was tested, and the T/C (dose: 55.0 mg/kg/injection, schedule: Q01DX Z (sc), vehicle: water) was 105 % of control, the T/C (dose: 91.0 mg/kg/injection, schedule: Q01DX Z (sc), vehicle: water) was 105 % of control and the T/C (dose: 152.0 mg/kg/injection, schedule: Q01DX Z (sc), vehicle: water) was 105 % of control. For the same molecule, the T/C (dose: 253.0 mg/kg/injection, schedule: Q01DX Z (sc), vehicle: water) was 157 % of control.
For `COC1=C(N)C(=O)c2nc(-c3nc(C(=O)O)c(C)c(-c4ccc(OC)c(OC)c4O)c3N)ccc2C1=O`, the T/C (dose: 0.02 mg/kg/injection, schedule: Q01DX009 (ip), vehicle: water) was 92 % of control, the T/C (dose: 0.02 mg/kg/injection, schedule: Q01DX009 (sc), vehicle: water) was 93 % of control and the T/C (dose: 0.05 mg/kg/injection, schedule: Q01DX009 (ip), vehicle: water) was 96 % of control. For the same molecule, the T/C (dose: 0.05 mg/kg/injection, schedule: Q01DX009 (sc), vehicle: water) was 98 % of control, the T/C (dose: 0.1 mg/kg/injection, schedule: Q01DX009 (ip), vehicle: water) was 96 % of control and the T/C (dose: 0.1 mg/kg/injection, schedule: Q01DX009 (sc), vehicle: water) was 96 % of control. The T/C (dose: 0.2 mg/kg/injection, schedule: Q01DX009 (ip), vehicle: water) was 93 % of control, the T/C (dose: 0.2 mg/kg/injection, schedule: Q01DX009 (sc), vehicle: water) was 94 % of control and the T/C (dose: 0.25 mg/kg/injection, schedule: Q01DX009 (sc), vehicle: water) was 104 % of control. The T/C (dose: 0.4 mg/kg/injection, schedule: Q01DX009 (ip), vehicle: water) was 102 % of control, the T/C (dose: 0.4 mg/kg/injection, schedule: Q01DX009 (sc), vehicle: water) was 98 % of control and the T/C (dose: 0.5 mg/kg/injection, schedule: Q01DX009 (sc), vehicle: water) was 94 % of control and 106 % of control. The T/C (dose: 1.0 mg/kg/injection, schedule: Q01DX009 (sc), vehicle: water) was 96 % of control and 101 % of control, the T/C (dose: 2.0 mg/kg/injection, schedule: Q01DX009 (sc), vehicle: water) was 94 % of control and 96 % of control and the T/C (dose: 4.0 mg/kg/injection, schedule: Q01DX009 (sc), vehicle: water) was 94 % of control.
With `CC[C@]1(O)C[C@H]2CN(CCc3c([nH]c4ccccc34)[C@@](C(=O)OC)(c3cc4c(cc3OC)N(C=O)[C@H]3[C@@](O)(C(=O)OC)[C@H](OC(C)=O)[C@]5(CC)C=CCN6CC[C@]43[C@@H]65)C2)C1` the T/C (dose: 0.25 mg/kg/injection, schedule: Q01DX001 (sc), vehicle: water) was 100 % of control and 101 % of control, the T/C (dose: 0.5 mg/kg/injection, schedule: Q01DX001 (sc), vehicle: water) was 104 % of control and 105 % of control and the T/C (dose: 0.65 mg/kg/injection, schedule: Q01DX Z (oral), vehicle: water) was 116 % of control. The T/C (dose: 1.0 mg/kg/injection, schedule: Q01DX001 (sc), vehicle: water) was 111 % of control, the T/C (dose: 1.08 mg/kg/injection, schedule: Q01DX Z (oral), vehicle: water) was 122 % of control and the T/C (dose: 1.08 mg/kg/injection, schedule: Q02DX Z (sc), vehicle: water) was 111 % of control. The T/C (dose: 1.8 mg/kg/injection, schedule: Q01DX Z (oral), vehicle: water) was 100 % of control, the T/C (dose: 1.8 mg/kg/injection, schedule: Q02DX Z (sc), vehicle: water) was 122 % of control and the T/C (dose: 2.0 mg/kg/injection, schedule: Q01DX001 (sc), vehicle: water) was 120 % of control and 122 % of control. The T/C (dose: 3.0 mg/kg/injection, schedule: Q01DX Z (oral), vehicle: water) was 100 % of control, the T/C (dose: 3.0 mg/kg/injection, schedule: Q02DX Z (sc), vehicle: water) was 122 % of control and the T/C (dose: 5.0 mg/kg/injection, schedule: Q01DX Z (oral), vehicle: water) was 100 % of control. For the same molecule, the T/C (dose: 5.0 mg/kg/injection, schedule: Q02DX Z (sc), vehicle: water) was 116 % of control and the T/C (dose: 8.4 mg/kg/injection, schedule: Q02DX Z (sc), vehicle: water) was 100 % of control.
